In ChEMBL document CHEMBL2401664, “De novo tyrosinase inhibitor: 4-(6,7-dihydro-5H-indeno[5,6-d]thiazol-2-yl)benzene-1,3-diol (MHY1556)” (Bioorg Med Chem Lett, 2013):

Columns and labels:
[1] = system: B16-F10; assay: Inhibition of alphaMSH-induced melanin production in mouse B16F10 cells after 48 hrs by melanin content assay; type: functional, cell-based
[2] = biological target: T1, Tyrosinase (Mus musculus) (UniProt P11344); assay: Inhibition of tyrosinase in mouse B16F10 cells assessed as L-DOPA oxidation after 24 hrs by ELISA; type: cell-based; details: B16-F10
T1 sequence (whole entry): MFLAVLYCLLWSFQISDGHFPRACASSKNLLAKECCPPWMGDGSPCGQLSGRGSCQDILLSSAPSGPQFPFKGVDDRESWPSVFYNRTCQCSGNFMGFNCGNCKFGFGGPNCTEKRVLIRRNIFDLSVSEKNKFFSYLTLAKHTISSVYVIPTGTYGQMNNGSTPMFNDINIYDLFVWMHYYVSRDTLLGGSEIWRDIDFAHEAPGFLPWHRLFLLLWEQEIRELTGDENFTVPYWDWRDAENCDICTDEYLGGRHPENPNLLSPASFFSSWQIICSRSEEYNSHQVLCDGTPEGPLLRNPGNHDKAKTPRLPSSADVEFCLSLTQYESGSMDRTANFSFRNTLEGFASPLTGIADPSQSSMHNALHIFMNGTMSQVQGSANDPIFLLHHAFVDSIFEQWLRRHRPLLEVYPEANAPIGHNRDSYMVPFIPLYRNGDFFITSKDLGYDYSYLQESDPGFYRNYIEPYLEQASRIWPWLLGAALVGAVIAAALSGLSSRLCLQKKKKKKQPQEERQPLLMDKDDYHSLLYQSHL

[3] = biological target: T1, Tyrosinase (Mus musculus); assay: Inhibition of tyrosinase in mouse B16F10 cells assessed as L-DOPA oxidation at 0.2 uM after 24 hrs by ELISA (reference value: […] %); type: cell-based; details: B16-F10
[4] = biological target: T1, Tyrosinase (Mus musculus); assay: Inhibition of tyrosinase in mouse B16F10 cells assessed as L-DOPA oxidation at 0.1 uM after 24 hrs by ELISA (reference value: […] %); type: cell-based; details: B16-F10
[5] = system: B16-F10; assay: Inhibition of alphaMSH-induced melanin production in mouse B16F10 cells at 2 uM after 48 hrs by melanin content assay (reference value: 163.78 %); type: functional; details: B16-F10, 48 h
[6] = system: B16-F10; assay: Inhibition of alphaMSH-induced melanin production in mouse B16F10 cells at 0.1 uM after 48 hrs by melanin content assay (reference value: 163.78 %); type: functional; details: B16-F10, 48 h
[7] = system: B16-F10; assay: Inhibition of alphaMSH-induced melanin production in mouse B16F10 cells at 0.2 uM after 48 hrs by melanin content assay (reference value: 163.78 %); type: functional; details: B16-F10, 48 h
[8] = system: B16-F10; assay: Inhibition of alphaMSH-induced melanin production in mouse B16F10 cells at 0.05 uM after 48 hrs by melanin content assay (reference value: 163.78 %); type: functional; details: B16-F10, 48 h
[9] = Cytotoxicity against mouse B16F10 cells assessed as cell viability at 40 uM after 48 hrs by MTT assay; type: cell-based, B16-F10; details: read-out: Activity
[10] = Cytotoxicity against mouse B16F10 cells assessed as cell viability at 10 uM after 48 hrs by MTT assay; type: cell-based, B16-F10; details: read-out: Activity
[11] = Cytotoxicity against mouse B16F10 cells assessed as cell viability at 20 uM after 48 hrs by MTT assay; type: cell-based, B16-F10; details: read-out: Activity
[12] = biological target: T2, Tyrosinase (Agaricus bisporus, UniProt O42713); assay: Inhibition of mushroom tyrosinase using L-tyrosine as substrate assessed as amount of dopachrome produced after 30 mins by spectrophotometry
T2 sequence (O42713 whole entry): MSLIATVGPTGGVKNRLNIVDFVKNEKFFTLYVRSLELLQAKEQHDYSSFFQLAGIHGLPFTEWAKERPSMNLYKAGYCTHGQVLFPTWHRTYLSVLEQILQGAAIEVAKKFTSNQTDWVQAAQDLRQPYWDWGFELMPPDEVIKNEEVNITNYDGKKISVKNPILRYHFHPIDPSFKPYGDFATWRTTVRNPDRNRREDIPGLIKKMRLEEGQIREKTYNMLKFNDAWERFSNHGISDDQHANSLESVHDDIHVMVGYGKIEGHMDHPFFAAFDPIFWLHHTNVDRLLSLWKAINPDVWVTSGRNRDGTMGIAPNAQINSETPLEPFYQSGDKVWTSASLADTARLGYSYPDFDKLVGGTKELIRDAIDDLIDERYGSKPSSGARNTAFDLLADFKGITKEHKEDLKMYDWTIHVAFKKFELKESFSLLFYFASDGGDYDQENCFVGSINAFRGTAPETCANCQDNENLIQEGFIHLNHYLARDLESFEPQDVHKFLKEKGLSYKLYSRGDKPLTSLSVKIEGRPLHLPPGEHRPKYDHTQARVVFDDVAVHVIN

[13] = Cytotoxicity against mouse B16F10 cells assessed as cell viability at 5 uM after 48 hrs by MTT assay; type: cell-based, B16-F10; details: read-out: Activity
[14] = biological target: T3, Tyrosinase (Agaricus bisporus) (UniProt O42713); assay: Inhibition of mushroom tyrosinase using L-tyrosine as substrate assessed as amount of dopachrome produced at 2 uM after 30 mins by spectrophotometry
T3 sequence (whole entry): T2 sequence (O42713 whole entry)

[15] = biological target: T3, Tyrosinase (Agaricus bisporus); assay: Inhibition of mushroom tyrosinase using L-tyrosine as substrate assessed as amount of dopachrome produced at 1 uM after 30 mins by spectrophotometry
[16] = biological target: T3, Tyrosinase (Agaricus bisporus); assay: Inhibition of mushroom tyrosinase using L-tyrosine as substrate assessed as amount of dopachrome produced at 0.8 uM after 30 mins by spectrophotometry
[17] = biological target: T3, Tyrosinase (Agaricus bisporus); assay: Inhibition of mushroom tyrosinase using L-tyrosine as substrate assessed as amount of dopachrome produced at 0.1 uM after 30 mins by spectrophotometry
[18] = biological target: T3, Tyrosinase (Agaricus bisporus); assay: Inhibition of mushroom tyrosinase using L-tyrosine as substrate assessed as amount of dopachrome produced at 0.5 uM after 30 mins by spectrophotometry
[19] = Cytotoxicity against mouse B16F10 cells assessed as cell viability at 2 uM after 48 hrs by MTT assay; type: cell-based, B16-F10; details: read-out: Activity

inhibition [2]: Dose-dependent effect | inhibition [3]: 109% | inhibition [4]: 133% | IC50 [12]: 500 nM | inhibition [14]: 83.5% | inhibition [15]: 73.6% | inhibition [16]: 68.3% | inhibition [17]: 22.2% | inhibition [18]: 56.5%
Compound: Oc1ccc(-c2nc3cc4c(cc3s2)CCC4)c(O)c1
inhibition [1]: Dose-dependent effect | inhibition at 2 µM [5]: 88.8% | inhibition at 0.1 µM [6]: 101% | inhibition at 0.2 µM [7]: 94.5% | inhibition at 0.05 µM [8]: 121% | viability at 48 h, 40 µM [9]: 88.4% | viability at 48 h, 10 µM [10]: 98.1% | viability at 48 h, 20 µM [11]: 95.6% | viability at 48 h, 5 µM [13]: 95% | viability at 48 h, 2 µM [19]: 97.9%
